Laboratory results from US8952024B2, “Herbicidal pyrimidone derivatives” (E I du Pont de Nemours and Company, priority 2009, dated 2015).

Tests used:
Format in all cases: in vivo
[1] = tested on: bermudagrass (Cynodon dactylon); test: Test B pre-/postemergence plant response
Method in brief: (§1)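 Greenhouse herbicide screen. Pre- and postemergence (1- to 4-leaf) spray of compound in solvent/surfactant mixture; loam–sand soil for pre, peat/vermiculite medium for post. Visual control rating 0–100 at 13 to 15 days after treatment.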

[2] = tested on: galium (catchweed bedstraw, Galium aparine); test: Test B pre-/postemergence plant response; conditions: Preemergence; for Galium plant response rating: 125 g ai/ha
Method in brief: as §1

[3] = tested on: morningglory (Ipomoea coccinea); test: Test B pre-/postemergence plant response
Method in brief: as §1

[4] = tested on: nightshade (eastern black nightshade, Solanum ptycanthum); test: Test B pre-/postemergence plant response; conditions: Preemergence; for Nightshade plant response rating: 125 g ai/ha
Method in brief: as §1

[5] = tested on: sunflower (common oilseed sunflower, Helianthus annuus); test: Test B pre-/postemergence plant response; conditions: Preemergence; for Sunflower plant response rating: 125 g ai/ha
Method in brief: as §1

[6] = tested on: canarygrass (Phalaris minor); test: Test B postemergence plant response
Method in brief: (§2)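 Plants grown in peat/vermiculite medium were sprayed postemergence at 2–18 cm height (1- to 4-leaf stage). After 13–15 days in the greenhouse, response was rated visually against untreated controls on a 0–100 scale (0 no effect, 100 complete control).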

[7] = tested on: chickweed (Stellaria media); test: Test B postemergence plant response
Method in brief: as §2

[8] = tested on: windgrass (Apera spica-venti); test: Test B postemergence plant response
Method in brief: as §2

[9] = tested on: winter barley (Hordeum vulgare); test: Test B postemergence plant response
Method in brief: as §2

[10] = tested on: barnyardgrass (Echinochloa crus-galli); test: Test B flooded paddy test; conditions: for Plant response rating, Flood, Barnyardgrass: 250 g ai/ha, flooded paddy test, visual rating on 0 to 100 scale (0 no effect, 100 complete control) after 13 to 15 days; for Plant response rating, Barnyardgrass: Flood (flooded paddy test), 13 to 15 days
Method in brief: (§3)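 2-leaf seedlings; pots flooded 3 cm over soil at treatment; cpd dosed into floodwater, depth kept constant. Greenhouse 13–15 d. Visual rating vs untreated controls, 0 = no effect, 100 = complete control.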

[11] = tested on: ducksalad (Heteranthera limosa); test: Test B flooded paddy test; conditions: for Plant response rating, Flood, Ducksalad: 250 g ai/ha, flooded paddy test, visual rating on 0 to 100 scale (0 no effect, 100 complete control) after 13 to 15 days; for Plant response rating, Ducksalad: Flood (flooded paddy test), 13 to 15 days
Method in brief: as §3

[12] = tested on: rice (Oryza sativa); test: Test B flooded paddy test; conditions: for Plant response rating, Flood, Rice: 250 g ai/ha, flooded paddy test, visual rating on 0 to 100 scale (0 no effect, 100 complete control) after 13 to 15 days; for Plant response rating, Rice: Flood (flooded paddy test), 13 to 15 days
Method in brief: as §3

[13] = tested on: umbrella sedge (Cyperus difformis); test: Test B flooded paddy test; conditions: for Plant response rating, Flood, Sedge, Umbrella: 250 g ai/ha, flooded paddy test, visual rating on 0 to 100 scale (0 no effect, 100 complete control) after 13 to 15 days; for Plant response rating, Sedge, Umbrella: Flood (flooded paddy test), 13 to 15 days
Method in brief: as §3

[14] = tested on: goosegrass (Eleusine indica); test: Test B pre-/postemergence plant response; conditions: Preemergence, 62 g ai/ha; scale 0 to 100, 0 no effect, 100 complete control
[15] = 31 g ai/ha, postemergence, scale 0 to 100, 0 is no effect, 100 is complete control
[16] = 250 g ai/ha, Preemergence, 0 to 100 scale
[17] = Postemergence, 62 g ai/ha, scale 0 (no effect) to 100 (complete control), 13 to 15 days
[18] = Postemergence, 125 g ai/ha, visual rating after 13 to 15 days, scale 0 (no effect) to 100 (complete control)
[19] = Postemergence, 250 g ai/ha, scale 0 to 100 (0 no effect, 100 complete control)
[20] = Preemergence, 31 g ai/ha, scale 0 to 100 (0 no effect, 100 complete control)
[21] = Preemergence, 62 g ai/ha, scale 0 to 100, 0 no effect, 100 complete control
[22] = Preemergence, 125 g ai/ha, 0 to 100 scale
[23] = 31 g ai/ha, scale 0 to 100 (0 no effect, 100 complete control)
[24] = 62 g ai/ha, scale 0 to 100, 0 no effect, 100 complete control
[25] = 31 g ai/ha, scale of 0 to 100 where 0 is no effect and 100 is complete control
[26] = 62 g ai/ha, scale of 0 to 100 where 0 is no effect and 100 is complete control
[27] = 125 g ai/ha, scale 0 to 100, 0 is no effect, 100 is complete control

## CCCn1c(-c2ccccc2)ncc(C(=O)C2=C(O)CCCC2=O)c1=O [Compound 50]
[1]; [15]
  Plant response rating, Bermudagrass: 90
[1]; [16]
  Plant response rating, Bermudagrass: 100
[1]; [17]
  Plant response rating, Bermudagrass: 100
[1]; [18]
  Plant response rating, Bermudagrass: 100
[1]; [19]
  Plant response rating, Bermudagrass: 100
[1]; [20]
  Plant response rating, Bermudagrass: 100
[1]; [21]
  Plant response rating, Bermudagrass: 100
[1]; [22]
  Bermudagrass plant response rating: 100
[2]; 250 g ai/ha, 0 to 100 scale
  Plant response rating, Galium: 98
[2]; [23]
  Plant response rating, Galium: 70
[2]; [24]
  Plant response rating, Galium: 95
[2]; 0 to 100 scale
  Galium plant response rating: 95
[3]; [15]
  Plant response rating, Morningglory: 10
[3]; [16]
  Plant response rating, Morningglory: 55
[3]; [17]
  Plant response rating, Morningglory: 25
[3]; [18]
  Plant response rating, Morningglory: 70
[3]; [19]
  Plant response rating, Morningglory: 80
[3]; [20]
  Plant response rating, Morningglory: 0
[3]; [21]
  Plant response rating, Morningglory: 0
[4]; 250 g ai/ha, 0 to 100 scale
  Plant response rating, Nightshade: 100
[4]; [23]
  Plant response rating, Nightshade: 100
[4]; [24]
  Plant response rating, Nightshade: 100
[4]; 0 to 100 scale
  Nightshade plant response rating: 100
[5]; 250 g ai/ha, 0 to 100 scale
  Plant response rating, Sunflower: 85
[5]; [23]
  Plant response rating, Sunflower: 55
[5]; 0 to 100 scale
  Sunflower plant response rating: 85
[6]; [15]
  Plant response rating, Canarygrass: 0
[6]; [17]
  Plant response rating, Canarygrass: 0
[6]; [18]
  Plant response rating, Canarygrass: 5
[6]; [19]
  Plant response rating, Canarygrass: 5
[7]; [15]
  Plant response rating, Chickweed: 80
[7]; [17]
  Plant response rating, Chickweed: 80
[7]; [18]
  Plant response rating, Chickweed: 98
[7]; [19]
  Plant response rating, Chickweed: 98
[8]; [15]
  Plant response rating, Windgrass: 10
[8]; [17]
  Plant response rating, Windgrass: 50
[8]; [18]
  Plant response rating, Windgrass: 60
[8]; [19]
  Plant response rating, Windgrass: 80
[9]; [15]
  Plant response rating, Barley: 0
[9]; [17]
  Plant response rating, Barley: 0
[9]; [18]
  Plant response rating, Barley: 5
[9]; [19]
  Plant response rating, Barley: 5
[10]
  Plant response rating, Flood, Barnyardgrass: 60
[10]; [25]
  Plant response rating, Barnyardgrass: 0
[10]; [26]
  Plant response rating, Barnyardgrass: 0
[10]; [27]
  Plant response rating, Barnyardgrass: 35
[11]
  Plant response rating, Flood, Ducksalad: 85
[11]; [25]
  Plant response rating, Ducksalad: 70
[11]; [26]
  Plant response rating, Ducksalad: 75
[11]; [27]
  Plant response rating, Ducksalad: 85
[12]
  Plant response rating, Flood, Rice: 20
[12]; [25]
  Plant response rating, Rice: 0
[12]; [26]
  Plant response rating, Rice: 10
[12]; [27]
  Plant response rating, Rice: 15
[13]
  Plant response rating, Flood, Sedge, Umbrella: 95
[13]; [25]
  Plant response rating, Sedge, Umbrella: 75
[13]; [26]
  Plant response rating, Sedge, Umbrella: 75
[13]; [27]
  Plant response rating, Sedge, Umbrella: 85
[14]
  Plant response rating, Goosegrass: 98

## Cc1ccc(F)c(-n2c(-c3ccccc3)ncc(C(=O)C3=C(O)CCCC3=O)c2=O)c1 [Compound 51]
[1]; [15]
  Plant response rating, Bermudagrass: 80
[1]; [16]
  Plant response rating, Bermudagrass: 100
[1]; [17]
  Plant response rating, Bermudagrass: 90
[1]; [18]
  Plant response rating, Bermudagrass: 90
[1]; [19]
  Plant response rating, Bermudagrass: 98
[1]; [20]
  Plant response rating, Bermudagrass: 95
[1]; [21]
  Plant response rating, Bermudagrass: 98
[1]; [22]
  Bermudagrass plant response rating: 100
[2]; 250 g ai/ha, 0 to 100 scale
  Plant response rating, Galium: 95
[2]; [23]
  Plant response rating, Galium: 0
[2]; [24]
  Plant response rating, Galium: 75
[2]; 0 to 100 scale
  Galium plant response rating: 80
[3]; [15]
  Plant response rating, Morningglory: 75
[3]; [16]
  Plant response rating, Morningglory: 70
[3]; [17]
  Plant response rating, Morningglory: 80
[3]; [18]
  Plant response rating, Morningglory: 90
[3]; [19]
  Plant response rating, Morningglory: 100
[3]; [20]
  Plant response rating, Morningglory: 0
[3]; [21]
  Plant response rating, Morningglory: 20
[3]; [22]
  Morningglory plant response rating: 20
[4]; 250 g ai/ha, 0 to 100 scale
  Plant response rating, Nightshade: 100
[4]; [23]
  Plant response rating, Nightshade: 98
[4]; [24]
  Plant response rating, Nightshade: 98
[4]; 0 to 100 scale
  Nightshade plant response rating: 98
[5]; 250 g ai/ha, 0 to 100 scale
  Plant response rating, Sunflower: 75
[5]; [23]
  Plant response rating, Sunflower: 20
[5]; 0 to 100 scale
  Sunflower plant response rating: 75
[6]; [15]
  Plant response rating, Canarygrass: 60
[6]; [17]
  Plant response rating, Canarygrass: 60
[6]; [18]
  Plant response rating, Canarygrass: 60
[6]; [19]
  Plant response rating, Canarygrass: 98
[7]; [15]
  Plant response rating, Chickweed: 80
[7]; [17]
  Plant response rating, Chickweed: 80
[7]; [18]
  Plant response rating, Chickweed: 85
[7]; [19]
  Plant response rating, Chickweed: 95
[8]; [15]
  Plant response rating, Windgrass: 50
[8]; [17]
  Plant response rating, Windgrass: 60
[8]; [18]
  Plant response rating, Windgrass: 60
[8]; [19]
  Plant response rating, Windgrass: 85
[9]; [15]
  Plant response rating, Barley: 5
[9]; [17]
  Plant response rating, Barley: 25
[9]; [18]
  Plant response rating, Barley: 30
[9]; [19]
  Plant response rating, Barley: 50
[10]
  Plant response rating, Flood, Barnyardgrass: 55
[10]; [25]
  Plant response rating, Barnyardgrass: 15
[10]; [26]
  Plant response rating, Barnyardgrass: 20
[10]; [27]
  Plant response rating, Barnyardgrass: 40
[11]
  Plant response rating, Flood, Ducksalad: 95
[11]; [25]
  Plant response rating, Ducksalad: 0
[11]; [26]
  Plant response rating, Ducksalad: 30
[11]; [27]
  Plant response rating, Ducksalad: 85
[12]
  Plant response rating, Flood, Rice: 60
[12]; [25]
  Plant response rating, Rice: 10
[12]; [26]
  Plant response rating, Rice: 15
[12]; [27]
  Plant response rating, Rice: 25
[13]
  Plant response rating, Flood, Sedge, Umbrella: 90
[13]; [25]
  Plant response rating, Sedge, Umbrella: 30
[13]; [26]
  Plant response rating, Sedge, Umbrella: 40
[13]; [27]
  Plant response rating, Sedge, Umbrella: 85
[14]
  Plant response rating, Goosegrass: 100
